Where a name gives a salt, the structure may show the parent alone.
Tests used:
[1] = system: human eosinophils; assay: Inhibition of histamine-induced chemotaxis of human eosinophils (eosinophil pre-incubation method); assay type: cell-based; details: for IC50: Homo sapiens, Eosinophil, eosinophils pre-incubated with antagonist, concentration related; for effect on histamine-induced chemotaxis: at concentrations of 10 micromolar
Description: (§1) A further functional assay for the histamine H4 receptor determines the ability of histamine to induce chemotaxis in eosinophils isolated from human blood. In this assay cells are primed with interleukin 5 and the ability of histaminergic ligands to promote migration of eosinophils across a permeable membrane is studied. The number of cells migrating in a defined period is then counted. Agonist potencies are expressed as EC50 values. Antagonists can also be studied by pre-incubating eosinophils with the compound and then assessing the inhibitory effects on histamine (or other suitable ligand) on eosinophil chemotaxis. The experiments can be performed in one of two ways. Firstly, by increasing the concentration of antagonist versus fixed concentration of agonist and calculating the IC50 for each antagonist. Secondly, by increasing the concentration of antagonist versus increasing the concentration of agonist and expressing the antagonist potency as a pkb or pA2 value, as appropriate.

[2] = target: T1, histamine H4 receptor (Homo sapiens, UniProt Q9H3N8); assay: Histamine H4 receptor radioligand binding, HEK293 cell line membranes
T1 construct: expressed in transfected cells; host or cells: HEK293
Text: The cDNA for the human histamine H3 and H4 receptor can be expressed in a suitable cell line such as HEK293 or CHO. In addition membranes can be prepared from tissues or cells which naturally express either the histamine H3 and/or H4 receptor. Affinity can be assessed at either receptor by assessing the ability of ligands to inhibit the binding of a suitable radioactively labelled ligand to membranes containing either the histamine H3 or H4 receptor. The potency of compounds is compared by calculating their pKI values.

[3] = system: human eosinophils; assay: Promotion of chemotaxis of interleukin 5 primed human isolated eosinophils (agonist mode); assay type: cell-based; details: interleukin 5 priming; for promotion of chemotaxis of human eosinophils: concentrations of from 10^−4 to 10^−5 M
Description: as §1

T1 sequence (Q9H3N8 whole entry): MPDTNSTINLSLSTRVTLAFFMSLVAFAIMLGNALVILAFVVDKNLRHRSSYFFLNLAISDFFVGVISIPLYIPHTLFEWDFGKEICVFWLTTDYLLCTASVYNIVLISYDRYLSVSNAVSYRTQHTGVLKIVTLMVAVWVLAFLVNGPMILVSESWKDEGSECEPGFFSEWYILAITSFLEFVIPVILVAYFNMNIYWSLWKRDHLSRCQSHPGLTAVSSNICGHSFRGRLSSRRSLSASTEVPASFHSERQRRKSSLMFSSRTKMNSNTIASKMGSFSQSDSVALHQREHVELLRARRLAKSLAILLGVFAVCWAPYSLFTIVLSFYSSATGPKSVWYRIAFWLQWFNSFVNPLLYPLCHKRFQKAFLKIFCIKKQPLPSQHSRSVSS

`S=C(NC1CCCCC1)N1CCC(c2cnc[nH]2)CC1` [thioperamide maleate] showed an IC50 [1] of 830 nM.

For `CN/C(=N/CCSCc1nc[nH]c1C)NC#N` [cimetidine], the “effect on histamine-induced chemotaxis” value [1] was “little or no effect”.

Compound `NC(=NCc1ccc(Cl)cc1)SCCCc1cnc[nH]1` [Clobenpropit] has a Ki [2] of 6.61 nM.

`N=C(N)SCCc1cnc[nH]1` [imetit] was tested, and the “promotion of chemotaxis of human eosinophils” value [3] was “did not promote chemotaxis”.

With `CC(CCCCC(=O)Nc1ccc(C(F)(F)F)cc1)NCCc1cnc[nH]1` (stereo not drawn) [HTMT] the “promotion of chemotaxis of human eosinophils” value [3] was “did not promote chemotaxis”.

`COc1ccc(CN(CCN(C)C)c2ccccn2)cc1` [mepyramine maleate] was tested, and the “effect on histamine-induced chemotaxis” value [1] was “little or no effect”.

`CN(C)CCCSC(=N)N` [dimaprit] was tested, and the “promotion of chemotaxis of human eosinophils” value [3] was “did not promote chemotaxis”.

With `NC(=NCc1ccc(Cl)cc1)SCCCc1cnc[nH]1` [clobenpropit dihydrobromide] the IC50 [1] was 1500 nM.

With `NCCc1c[nH]cn1` [histamine] the “promotion of chemotaxis of human isolated eosinophils” value ([3]; concentration range 10^−8 to 10^−5 M) was “promoted chemotaxis”.
